Assay results as given in patent publication US20040063694A1, “Compound useful for the treatment of CNS disorders” (priority 2002, published 2004).

Columns and labels:
[1] = previous dog study on a smaller group of animals, cholesterol; conditions: for rise in cholesterol: male or female beagle dogs, 4 mgs/kg/day
[2] = beagle dogs; as stated in the '382 patent (alleged); cited from earlier work
[3] = solubility in aqueous systems; assay type: physicochemical
Description: It is known that rate of dissolution of drug particles can be increased by increasing the surface area of the solid, i.e., decreasing the particle size. Consequently, methods of making finely divided drugs have been studied and efforts have been made to control the size and size range of drug particles in pharmaceutical compositions. For example, dry milling techniques have been used to reduce particle size and thereby influence drug absorption. However, in conventional dry milling, as discussed by Lachman et al., The Theory and Practice of Industrial Pharmacy, Chapter 2, “Milling”, p. 45 (1986), the limit of fineness is reached in the region of about 100 µm (=100,000 nm), where the milled material begins to cake onto the surfaces of the milling chamber. Lachman et al. note that wet grinding is beneficial in further reducing particle size, but that flocculation restricts the lower particle size limit to approximately 10 µm (=10,000 nm). Commercial airjet milling techniques have provided particles ranging in average particle size from as low as about 1 µm to 50 µm (=1,000 nm to 50,000 nm). It is […], however, that the 2-ethyl homolog of this invention is advantageously milled according to the above processes to make the compound having an average particle size of between about 1-200 micrometers. The preferred average particle size is less than 200 micrometers.

[4] = test system: 5HT-1 receptors; experiment: activity at 5HT-1 receptors
Description: (§1) The compound of the invention in all its forms is useful in the treatment of various central nervous system (CNS) disorders or conditions. The compound has been tested using standard behavioral models predictive of antipsychotic activity. These tests include the tests conducted in published papers mentioned above including the rat conditioned avoidance test, the rat catalepsy test and other tests including binding assays to central nervous system receptors including D-1 and D-2 dopamine receptors.

[5] = test system: 5HT-2 receptors; experiment: activity at 5HT-2 receptors
Description: as §1

[6] = twenty-six week dog study, total cholesterol; conditions: female beagle dogs
Procedure: The dogs are studied over a course of 8 mgs/kg/day per drug for a twenty-six week period and assessed at varying time points for LDL, HDL and total cholesterol as well as having their estrous cycle monitored and measured. […] The preferred normal range in human patients of cholesterol level (total) is described in the Merck Manual as 120-220 mg/Dl.

[7] = 10 mg/kg, Chakabarti et al. J. Med. Chem. 1980; cited from earlier work
[8] = twenty-six week dog study, blood glucose levels; conditions: female beagle dogs
Procedure: In addition to total cholesterol values other parameters were measured including blood glucose levels at pretest, week 13 and week 26 of the study.

[9] = 16 mg/kg, Chakabarti et al. J. Med. Chem. 1980; cited from earlier work

Row | SMILES | rise in cholesterol relative to placebo ([1]; male beagle dogs, 8 mgs/kg/day) | rise in cholesterol [1] | cholesterol raising effect [2] | solubility in aqueous systems relative to olanzapine [3] | activity at the 5HT-1 receptors [4] | activity at the 5HT-2 receptors [5] | total average cholesterol values ([6]; 8 mgs/kg/day, twenty six weeks, effect of normal estrous cycle variations discounted) | average total cholesterol value, spike at a single point early on in the study ([6]; oral 8 mgs/kg/day) | mean total cholesterol values after the full duration of the study ([6]; oral 8 mgs/kg/day, twenty-six weeks, n=15 per arm) | rat conditioned avoidance test data [7] | blood glucose level, week 13 ([8]; oral 8 mgs/kg/day, week 13) | blood glucose level, week 26 ([8]; oral 8 mgs/kg/day, week 26) | blood glucose level, pretest ([8]; pretest (before dosing)) | rat catalepsy test [9]
1 | CCc1cc2c(s1)Nc1ccccc1N=C2N1CCN(C)CC1 [Example 222, 2-ethyl-10-(4-methyl-1-piperazinyl)-4H-thieno[2,3-b][1,5]benzodiazepine] | no rise in cholesterol | no rise in cholesterol | some cholesterol raising effect | slightly less soluble than olanzapine | shows activity | shows activity | ≤ 240 mg/dL | 237.2 mgs/dL | 186.8 mgs/dL | 2 (31-50% block) | 87.9 mg/dL | 77.6 mg/dL | 82.5 mg/dL | 1
2 | Cc1cc2c(s1)Nc1ccccc1N=C2N1CCN(C)CC1 [olanzapine, 2-methyl-10-(4-methyl-1-piperazinyl)-4H-thieno[2,3-b][1,5]benzodiazepine, reference compound] | – | no rise in cholesterol | – | – | – | – | – | – | – | – | – | – | – | –
